Reference: publication PMC9046089, “CCNE1 amplification is synthetic lethal with PKMYT1 kinase inhibition” (Nature, 2022)
Values joined by “and” are separate entries in the source; they are usually repeats but may differ in a detail not shown here. Equal entries are not always repeated. Where two headings read alike, the source gives them in different places.

Key:
CDK1 = assay: Immune complex histone H1 kinase assay, IP-CDK1, FT282 CCNE1-high cells; assay type: cell-based; details: 24 h; for 32P-labelled histone H1 band intensity, IP-CDK1 kinase assay: 0 nM = 1
Protocol: (§1) Protein concentration was determined by Bradford assay (Thermo Fisher Scientific cat. no. 1856209). For immunoprecipitation of kinases, 200 μg of extract was diluted in 750 μl EBN buffer and 10 μg of CDK1 or CDK2 primary antibody agarose bead conjugates were added to the extract and rotated at 4 °C overnight. Immunoprecipitates were pelleted by centrifugation at 2,500g at 4 °C for 5 min and washed 2× in 750 μl EBN followed by 1 ml EB (80 mM β-glycerol phosphate, 15 mM MgCl2, 20 mM EGTA, 1 mg ml^−1 ovalbumin). After the final wash, the immunoprecipitates were resuspended in 500 μl EB and split into two samples. One sample was used for immunoblot analysis and the other used for kinase assays. Following removal of the final wash, immunoprecipitates were resuspended in 11 μl histone H1 kinase assay buffer (80 mM β-glycerol phosphate, 15 mM MgCl2, 20 mM EGTA, 1 mg ml^−1 ovalbumin, 10 mM DTT, 0.15 μg μl^−1 histone H1 (Sigma-Aldrich, cat. no. H1917), 22 μM ATP, 0.05 μCi μl^−1 γ^32P-ATP (Perkin Elmer NEG502A250UC), pH 7.3) and incubated at room temperature for 30 min. Reactions were quenched by addition of 5 μl 6× sample buffer (60% glycerol, 6% SDS, 0.03% bromophenol blue, 1,500 mM Tris-Cl pH 6.8, 60 mM DTT) and resolved by SDS–PAGE. Gels were exposed to a phosphor imaging screen for 1–2 d and imaged using a Typhoon FLA 9500 (GE Healthcare Life Sciences). 32P-H1 band intensity was quantified using ImageJ v2.0.0.

CDK2 = assay: Immune complex histone H1 kinase assay, IP-CDK2, FT282 CCNE1-high cells; assay type: cell-based; details: 24 h
Protocol: as §1, with “Gels were exposed to a phosphor imaging screen for 1–2 d and imaged using a Typhoon FLA 9500 (GE Healthcare Life Sciences).” left out

COV362 cells = assay: Cell proliferation assay (Incucyte growth inhibition); assay type: cell-based; details: three replicates
Description: (§2) Per cent confluence relative to a non-treated control was used to evaluate growth inhibition induced by test compounds. […] (https://synergyfinder.fimm.fi).

DOTC24510 cells = assay: as above; assay type: cell-based; details: three replicates
Description: as §2

KYSE30 cells = assay: as above; assay type: cell-based; details: three replicates
Description: as §2

NUGC3 cells = assay: as above; assay type: cell-based; details: three replicates
Description: as §2

OVCAR3 cells = assay: as above; assay type: cell-based; details: three replicates
Description: as §2

[1] = tested on: RPE1-hTERT TP53-/- Cas9 CCNE1-high cells; assay: as above; assay type: cell-based
Description: as §2

[2] = tested on: RPE1-hTERT TP53-/- Cas9 parental cells; assay: as above; assay type: cell-based
Description: as §2

SNU8 cells = assay: as above; assay type: cell-based; details: three replicates
Description: as §2

SUM149PT cells = assay: as above; assay type: cell-based; details: three replicates
Description: as §2

TOV112D cells = assay: as above; assay type: cell-based; details: three replicates
Description: as §2

HCC1569 cells = assay: Cell proliferation assay (Incucyte growth inhibition, synergy); assay type: cell-based; details: three replicates
Description: as §2

human recombinant PKMYT1 = target: T1, human recombinant PKMYT1 (Homo sapiens, UniProt Q99640); assay: ADP-Glo kinase assay of PKMYT1 catalytic activity; assay type: biochemical
T1 construct: full-length human GST–PKMYT1 recombinant protein; GST (N); purchased Thermo Fisher Scientific A33387
T1 sequence (Q99640 1-499): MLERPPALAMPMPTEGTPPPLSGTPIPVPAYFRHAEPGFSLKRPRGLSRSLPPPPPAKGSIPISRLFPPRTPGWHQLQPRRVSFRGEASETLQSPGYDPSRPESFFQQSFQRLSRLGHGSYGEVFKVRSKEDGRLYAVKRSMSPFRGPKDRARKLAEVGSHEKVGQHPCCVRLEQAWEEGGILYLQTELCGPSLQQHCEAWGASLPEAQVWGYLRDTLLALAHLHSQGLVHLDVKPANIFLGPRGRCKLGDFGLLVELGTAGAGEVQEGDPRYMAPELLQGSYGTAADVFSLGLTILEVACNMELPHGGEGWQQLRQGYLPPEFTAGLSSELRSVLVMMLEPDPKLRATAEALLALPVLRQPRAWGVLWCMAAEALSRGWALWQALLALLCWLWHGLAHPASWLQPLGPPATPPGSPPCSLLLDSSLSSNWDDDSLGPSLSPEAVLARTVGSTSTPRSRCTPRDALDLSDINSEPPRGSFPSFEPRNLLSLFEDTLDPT

[3] = read-out: RP-6306 EC50 (mM) RPE1 CCNE1 (C2), growth inhibition, three replicates
[4] = read-out: RP-6306 EC50 (mM) RPE1 WT, growth inhibition, three replicates

C=CCn1c(=O)c2cnc(Nc3ccc(N4CCN(C)CC4)cc3)nc2n1-c1cccc(C(C)(C)O)n1 [AZD-1775]
32P-labelled histone H1 band intensity, IP-CDK1 kinase assay (CDK1; AZD-1775 250 nM): 1.298 and 1.203 and 0.7824 | 32P-labelled histone H1 band intensity, IP-CDK1 kinase assay (CDK1; AZD-1775 500 nM): 1.804 and 1.271 and 1.266 | 32P-labelled histone H1 band intensity, IP-CDK1 kinase assay (CDK1; AZD-1775 1000 nM): 2.54 and 1.785 and 1.69 | CDK1 kinase activity (CDK1; FT282 CCNE1-high cells): activation of both kinases | CDK2 kinase activity (CDK2): activation of both kinases | EC50 (COV362 cells; COV362, growth inhibition): 49 nM | EC50 (DOTC24510 cells; Homo sapiens, DoTc2-4510, growth inhibition): 38 nM | EC50 (DOTC24510 cells; growth inhibition): 42 nM and 55 nM | EC50 (KYSE30 cells; Homo sapiens, KYSE-30, growth inhibition): 437 nM | EC50 (KYSE30 cells; growth inhibition): 482 nM and 541 nM | EC50 (NUGC3 cells; Homo sapiens, NUGC-3, growth inhibition): 212 nM | EC50 (NUGC3 cells; growth inhibition): 239 nM | EC50 (OVCAR3 cells; Homo sapiens, OVCAR-3, growth inhibition): 94 nM | EC50 (OVCAR3 cells; growth inhibition): 78 nM and 98 nM | EC50 ([1]; Homo sapiens, RPE-1, read-out: RP-6306 EC50 (mM) RPE1 CCNE1 (C2), growth inhibition, three replicates): 0.000113 mM | EC50 [1, 3]: 0.00015 mM and 0.000111 mM | EC50 ([2]; Homo sapiens, RPE-1, read-out: RP-6306 EC50 (mM) RPE1 WT, growth inhibition, three replicates): 172 nM | EC50 [2, 4]: 159 nM and 154 nM | EC50 (SNU8 cells): 98 nM and 114 nM and 97 nM | EC50 (SUM149PT cells; Homo sapiens): 211 nM | EC50 (SUM149PT cells): 232 nM and 196 nM | EC50 (TOV112D cells; Homo sapiens): 444 nM | EC50 (TOV112D cells): 390 nM and 454 nM | EC50 (HCC1569 cells; Homo sapiens, HCC1569, growth inhibition): 54 nM | EC50 (HCC1569 cells; growth inhibition): 51 nM and 56 nM

C[C@@]1(O)CCC[C@H]1n1c(=O)c(C(F)F)cc2cnc(NC3CCN(S(C)(=O)=O)CC3)nc21 [PF-06873600]
EC50 (COV362 cells; growth inhibition): 94 nM and 93 nM | EC50 (DOTC24510 cells; growth inhibition): 56 nM and 41 nM and 28 nM | EC50 (KYSE30 cells; growth inhibition): 32 nM and 22 nM and 29 nM | EC50 (NUGC3 cells; growth inhibition): 28 nM and 25 nM and 22 nM | EC50 (OVCAR3 cells; growth inhibition): 46 nM and 37 nM and 35 nM | EC50 [1, 3]: 0.000125 mM | EC50 [2, 4]: 98 nM and 79 nM and 106 nM | EC50 (SNU8 cells): 21 nM and 50 nM and 43 nM | EC50 (SUM149PT cells): 75 nM and 85 nM and 80 nM | EC50 (TOV112D cells): 43 nM and 47 nM and 42 nM | EC50 (HCC1569 cells; growth inhibition): 37 nM and 41 nM and 40 nM

Cc1cnc2c(c1)c(C(N)=O)c(N)n2-c1c(C)cccc1C [RP-6421]
effect on PKMYT1 catalytic activity (human recombinant PKMYT1; ADP-Glo dose-response): no effect | PKMYT1 catalytic activity, ADP-Glo signal (human recombinant PKMYT1; c0 (log10 concentration, head mM) 1): 13700 | PKMYT1 catalytic activity, ADP-Glo signal (human recombinant PKMYT1; c0 (log10 concentration, head mM) -0.57777): 15400 | PKMYT1 catalytic activity, ADP-Glo signal (human recombinant PKMYT1; c0 (log10 concentration, head mM) -2.18442): 16550 | PKMYT1 catalytic activity, ADP-Glo signal (human recombinant PKMYT1; c0 (log10 concentration, head mM) -3.8365): 15000 | PKMYT1 catalytic activity, ADP-Glo signal (human recombinant PKMYT1; c0 (log10 concentration, head mM) -5.64386): 14750 | PKMYT1 catalytic activity, ADP-Glo signal (human recombinant PKMYT1; c0 (log10 concentration, head mM) -6.93016): 14350 | PKMYT1 catalytic activity, ADP-Glo signal (human recombinant PKMYT1; c0 (log10 concentration, head mM) -8.53282): 14150 | PKMYT1 catalytic activity, ADP-Glo signal (human recombinant PKMYT1; c0 (log10 concentration, head mM) -10.0955): 14900 | PKMYT1 catalytic activity, ADP-Glo signal (human recombinant PKMYT1; c0 (log10 concentration, head mM) -11.6789): 15800 | PKMYT1 catalytic activity, ADP-Glo signal (human recombinant PKMYT1; c0 (log10 concentration, head mM) -13.2591): 15500
